Results from US9822414B2, “In vitro method for predicting in vivo genotoxicity of chemical compounds” (priority 2011, dated 2017).
Several values for one entry are separate records, joined by “and”; a condition that tells them apart may be missing. Equal values may be shown once. Read-outs that look alike come from different tables or passages of the source.

Tests used:
[1] = tested on: Salmonella typhimurium; conditions: cited from earlier work
[2] = tested on: rodents; conditions: cited from earlier work
[3] = tested on: PWWP2B; test: Gene expression of PWWP2B in HepG2 cells exposed to compound (microarray, log2 treatment:control ratio); format: cell-based, human
[4] = tested on: HepG2 cell; test: Class prediction of in vivo genotoxicity by the method of the invention (Ames stratification plus three-gene expression in HepG2); conditions: 62 compounds, three replicates, HepG2 24 h
[5] = tested on: HepG2 cell
[6] = tested on: conventional in vitro genotoxicity assays; conditions: cited from earlier work
[7] = tested on: LOC100505880; test: Gene expression of LOC100131914/LOC100505880 in HepG2 cells exposed to compound (microarray, log2 treatment:control ratio); format: cell-based, human
[8] = tested on: NR0B2; test: Gene expression of NR0B2 in HepG2 cells exposed to compound (microarray, log2 treatment:control ratio); format: cell-based, human
[9] = positive when at least one in vivo assay (MN, CA) positive, equivocal considered positive
[10] = HepG2 cells, 24 h exposure, Ames positive compounds, one line per replicate of triplicate experiments

| SMILES | Ames [1] | Standard (in vivo genotoxicity designation) ([2]; in vivo) | In vivo GTX [2, 9] | Log2 treatment: control ratio PWWP2B [3] | Prediction (class prediction results using the method of the invention) [4] | Average result over three measurements [5] | In vitro GTX [6] | LOC100505880 above or below the reference value [7] | PWWP2B above or below the reference value [3] | NR0B2 above or below the reference value [8] | At least ⅔ genes +? [5] | further results |
| --- | --- | --- | --- | --- | --- | --- | --- | --- | --- | --- | --- | --- |
| CC(=O)Nc1ccc2c(c1)Cc1ccccc1-2 [2AAF] | + | GTX | + | −0.045 and −0.14 and 0.042 | GTX+ | GTX | + |  |  |  |  |  |
| CC(=O)Nc1cccc2c1-c1ccccc1C2 [4AAF] | + | NGTX |  |  | NGTX+ | NGTX | + | − (minus sign indicates a value below the reference value) |  |  |  | Log2 treatment: control ratio LOC100505880 [7]: −0.217 and −0.295 and −0.101; Log2 treatment: control ratio NR0B2 [8]: −0.04 and −0.278 and −0.088 |
| Oc1cccc2cccnc12 [8HQ] | + | NGTX |  | 0.014 and −0.165 and −0.069 | GTX+ | GTX | + |  |  |  |  |  |
| Nc1ccc(-c2ccccc2)cc1 [ABP] |  |  | + |  |  |  |  |  | + (Plus sign indicates a value above the reference value) | + (Plus sign indicates a value above the reference value) |  |  |
| Cn1cnc([N+](=O)[O-])c1Sc1ncnc2nc[nH]c12 [AZA] |  | GTX |  |  |  | GTX | + |  |  |  | GTX | Ames ([1]; Ames results based on NTP data): +; LOC100505880 above or below the reference value ([7]; HepG2, Ames positive compounds, per replicate, reference value −0.054): + (Plus sign indicates a value above the reference value); Log2 treatment: control ratio LOC100505880 [7, 10]: 1.541 and 0.022 and 1.33; In vivo GTX ([2]; in vivo): +; PWWP2B above or below the reference value ([3]; HepG2, Ames positive compounds, per replicate, reference value −0.071): + (Plus sign indicates a value above the reference value); Log2 treatment: control ratio PWWP2B [3, 10]: 0.536 and 0.044 and −0.035; Prediction (class prediction results using the method of the invention) [5]: GTX; NR0B2 above or below the reference value ([8]; HepG2, Ames positive compounds, per replicate, reference value −0.099): + (Plus sign indicates a value above the reference value); Log2 treatment: control ratio NR0B2 [8, 10]: 1.473 and 0.232 and 0.893 |
| Nc1ccc(-c2ccc(N)cc2)cc1 [BZ] | + | GTX |  |  |  | GTX | + |  |  | + (key: +: Plus sign indicates a value above the reference value; −: minus sign indicates a value below the reference value) | GTX | In vivo GTX ([2]; in vivo): +; Prediction (class prediction results using the method of the invention) [5]: GTX |
| O=P1(N(CCCl)CCCl)NCCCO1 (centres unmarked) [CP] | + | GTX | + | 0.042 and −0.221 and 0.073 | GTX | GTX | + | + (Plus sign indicates a value above the reference value) |  |  | GTX | Log2 treatment: control ratio LOC100505880 [7]: −0.031 and −0.01 and 0.139 |
| O=C(O)CCCc1ccc(N(CCCl)CCCl)cc1 [Cb] | + | GTX | + |  | GTX | GTX | + | + (Plus sign indicates a value above the reference value) |  | + (Plus sign indicates a value above the reference value) | GTX |  |
| CCN(CC)N=O [DEN] |  | GTX | + |  |  |  | + | + (Plus sign indicates a value above the reference value) | + (Plus sign indicates a value above the reference value) |  |  |  |
| CCN(N=O)C(N)=O [ENU] | + | GTX | + | 0.01 and 0.06 and 0.11 | GTX | GTX | + |  | + (Plus sign indicates a value above the reference value) | + (Plus sign indicates a value above the reference value) | GTX |  |
| Cn1c(N)nc2c3cccnc3ccc21 [IQ] | + | GTX | + | 0.188 and −0.003 and −0.052 | GTX | GTX | + | + (Plus sign indicates a value above the reference value) | + (Plus sign indicates a value above the reference value) |  | GTX |  |
| Nc1ccc(Cc2ccc(N)c(Cl)c2)cc1Cl [MOCA] |  | GTX | + |  |  |  | + |  | + (Plus sign indicates a value above the reference value) | + (Plus sign indicates a value above the reference value) |  |  |
| CCC1(c2ccccc2)C(=O)NC(=O)NC1=O [PhB] | + | NGTX |  | −0.169 and −0.272 and −0.154 |  | NGTX | + | − (minus sign indicates a value below the reference value) | − (minus sign indicates a value below the reference value) |  | NGTX | Log2 treatment: control ratio LOC100505880 [7]: −0.154 and −0.38 and −0.303; In vivo GTX ([2]; in vivo): −; Classification of NGTX compounds by the method of the invention (false positives) [5]: misclassification; Prediction (class prediction results using the method of the invention) [5]: NGTX; Results in the conventional in vitro genotoxicity assays [6]: positive results |
| COc1ccc(C)cc1N [pCres] | + | GTX | + |  | GTX | GTX | + |  | + (Plus sign indicates a value above the reference value) | + (Plus sign indicates a value above the reference value) | GTX |  |
